Target: Glutamate NMDA receptor; GRIN1/GRIN2A (Homo sapiens) (UniProt Q05586+Q12879)
Assay: Inhibitory activity against NR1A expressed in combination with NR2A at 15 uM

| inhibition [%] | SMILES |
| --- | --- |
| 32.1 | COc1cccc(OC)c1C/N=C(\N)c1cc2ccccc2[nH]1 |

Species on record: Mus musculus
Assay: Oral efficacy in mice formalin test
Assay type: functional

| SMILES | ED50 [mg/kg] |
| --- | --- |
| COc1ccccc1C/N=C(\N)c1cc2ccccc2[nH]1.Cl | 15 |

Target: Glutamate NMDA receptor
Assay: Inhibition of NMDA-evoked intracellular calcium increase in rat cortical cell at 1 uM
Assay type: functional, cell-based

| inhibition [%] | SMILES |
| --- | --- |
| 32.8 | Cl.N=C(NCc1ccccc1)c1cc2ccccc2[nH]1 |
| 10.5 | COc1ccc(C/N=C(\N)c2cc3ccccc3[nH]2)cc1.Cl |
| 57 | COc1cccc(C/N=C(\N)c2cc3ccccc3[nH]2)c1.Cl |

Target: Glutamate NMDA receptor
Assay: Inhibition of NMDA-evoked intracellular calcium increase in rat cortical cells
Assay type: functional, cell-based

| SMILES | IC50 [nM] |
| --- | --- |
| COc1ccccc1C/N=C(\N)c1cc2ccccc2[nH]1.Cl | 35 |
| N=C(NCc1ccccc1F)c1cc2ccccc2[nH]1 | 232 |
| Cc1ccccc1C/N=C(\N)c1cc2ccccc2[nH]1 | 170 |
| N=C(NCc1cc(Cl)cc(Cl)c1)c1cc2ccccc2[nH]1 | 159 |
| N=C(NCc1c(F)cccc1F)c1cc2ccccc2[nH]1 | 143 |
| COc1cccc(OC)c1C/N=C(\N)c1cc2cc(Cl)ccc2[nH]1 | 69 |
| COc1ccccc1C/N=C(\N)c1cc2cc(Cl)ccc2[nH]1 | 64 |

Second part, the molecule after the results:

| IC50 [nM] | SMILES |
| --- | --- |
| 33 | COc1ccccc1C/N=C(\N)c1cc2cc(F)ccc2[nH]1 |
| 26 | COc1ccc2[nH]c(C(=N)NCc3c(OC)cccc3OC)cc2c1 |
| 19 | COc1ccc2[nH]c(C(=N)NCc3ccccc3OC)cc2c1 |
| 17 | COc1cccc(OC)c1C/N=C(\N)c1cc2cc(F)ccc2[nH]1 |
| 6.6 | COc1ccccc1CNC(=N)/C=C/c1ccccc1 |
| 5.4 | COc1cccc(OC)c1C/N=C(\N)c1cc2ccccc2[nH]1 |
